The source of these data is patent US7053095B2, “Triazole compounds as transforming growth factor (TGF) inhibitors” (Pfizer Inc., priority 2002, dated 2006).

For the test, the target named is T1, TβRI (ALK-5) (Homo sapiens, UniProt P36897).
T1 construct: with same assay conditions using either the kinase domain of ALK5 with Smad3 as substrate; GST
T1 sequence (P36897 205-495 limits assumed): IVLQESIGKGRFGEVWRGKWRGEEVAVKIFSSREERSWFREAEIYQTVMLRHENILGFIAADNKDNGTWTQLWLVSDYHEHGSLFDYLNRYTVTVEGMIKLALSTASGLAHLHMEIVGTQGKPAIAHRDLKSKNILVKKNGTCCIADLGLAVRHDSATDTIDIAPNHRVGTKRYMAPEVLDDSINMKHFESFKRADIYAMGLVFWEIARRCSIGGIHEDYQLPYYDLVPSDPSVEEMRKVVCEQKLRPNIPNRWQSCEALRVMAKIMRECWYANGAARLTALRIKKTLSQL
In words: ALK-5 (TβRI) kinase assay. The test is classed as biochemical. On the procedure: ALK-5 (TβRI) Kinase Assay Protocol
The kinase assays were performed with 65 nM GST-ALK5 and 84 nM GST-Smad3 in 50 mM HEPES, 5 mM MgCl2, 1 mM CaCl2, 1 mM dithiothreitol, and 3_M ATP. Reactions were incubated with 0.5_Ci of [33 P]_ATP for 3 h at 30° C. Phosphorylated protein was captured on P-81 paper (Whatman, Maidstone, England), washed with 0.5% phosphoric acid, and counted by liquid scintillation. Alternatively, Smad3 or Smad1 protein was also coated onto FlashPlate Sterile Basic Microplates (PerkinElmer Life Sciences, Boston, Mass.). Kinase assays were then performed in Flash-Plates with same assay conditions using either the kinase domain of ALK5 with Smad3 as substrate or the kinase domain of ALK6 (BMP receptor) with Smad1 as substrate. Plates were washed three times with phosphate buffer and counted by TopCount (Packard Bio-science, Meriden, Conn.). (Laping, N.J. et al. Molecular Pharmacology 62:58–64 (2002)).

`Cc1cccc(-c2n[nH]nc2-c2ccc3nnc(C)n3c2)n1` [Example 2, 3-Methyl-6-[5-(6-methyl-pyridin-2-yl)-2H-[1,2,3]triazol-4-yl]-[1,2,4]triazolo[4,3-a]pyridine] displayed a 50% inhibitory concentration (IC50) of approximately 58 nM.

By IC50 is commonly meant the concentration needed to halve the response being measured. Higher therefore signals lower potency.
